Reference: patent US9393288B2, “Methods of treating diseases associated with PPARγ” (The University of Vermont and State Agricultural College, priority 2012, dated 2016)

Legend:
Assay type in all cases: in vivo, rat
[1] = Conscious blood pressure, non-invasive tail-cuff method, SHR; conditions: SHR-F, relaxin 4 μg/hr 14 days
Description: Systemic blood pressures were determined in all groups of animals using a non-invasive tail-cuff method (Chan, S. L., and Cipolla, M. J. (2011) Relaxin causes selective outward remodeling of brain parenchymal arterioles via activation of peroxisome proliferator-activated receptor-gamma. FASEB J 25, 3229-3239). For untreated WKY-F and SHR-F groups, blood pressures were measured on the day the animals were euthanized. For relaxin treated groups, blood pressures were measured on day 0 (baseline, before pump implant), 2, 7 and 14. All animals were trained for 3 days before actual blood pressure measurements were taken.

[2] = system: parenchymal arterioles (PA); test: Pressurized arteriograph: vascular reactivity and structure of PA from relaxin-treated NP Sprague Dawley rats; conditions: for Kind of structural remodeling of PA: normotensive NP rats
Excerpt: (§1) Animals and Treatment Groups: All procedures were approved by the Institutional Animal Care and Use Committee and conducted in accordance with the National Institutes of Health Guide for the Care and Use of Laboratory Animals. Female virgin NP Sprague Dawley rats (250-300 g, 14-16 weeks, Charles River, Canada) were used for all experiments and housed in the University of Vermont Animal Care Facility. Animals were randomly selected and grouped as untreated (N=4), treated with recombinant human relaxin-2 (relaxin, 4 μg/hr; N=14), relaxin plus a specific PPARγ inhibitor GW9662 (10 mg/kg daily in food; N=8), or vehicle (20 mM sodium acetate; N=14) for 10 days through osmotic minipumps (Alzet 2ML2, Durect Corp., Cupertino, Calif., USA). GW9662 treatment was started 1 day before and for the duration of relaxin treatment to ensure PPARγ was inhibited. Animals were anesthetized with 3% isoflurane and minipumps implanted subcutaneously in the back of the neck. All animals received post-surgical analgesic (buprenorphine, 50 μg/kg, s.c.). Relaxin infusion was continuous for 10 days until animals were euthanized for vessel experiments and tissue collection. The minipumps used were capable of delivering relaxin for 14 days and thus tissue collection was within this duration.
Vessel Preparation and Pressurized Arteriograph System: After collecting trunk blood, the brain was quickly removed and placed in cold physiological salt solution (PSS). In the first set of experiments, PA between the M1 and M2 region of the MCA territory and the MCA from the same animals were carefully isolated from vehicle- or relaxin-treated animals and mounted on glass cannulas in a dual-chambered arteriograph such that one PA and one MCA from each animal were studied simultaneously. PA were identified as branches off the MCA that penetrated into the brain tissue, as previously described (25). In the second set of experiments, PA from the same brain region as above were dissected from relaxin+GW9662-treated animal and compared to PA from vehicle- and relaxin-treated animals. MCA were not studied in this second set of animals because there was no effect of relaxin on that segment of the vasculature. The proximal cannulas were connected to an in-line pressure transducer and a servo-null pressure control system (Living Systems Instrumentation, Burlington, Vt., USA) that allowed intravascular pressure to be maintained at a set pressure or changed at a variable rate. The distal cannulas were closed during the experiment to avoid flow-mediated responses. Temperature and pH were continuously measured and maintained at 37.0±0.5° C. and 7.40±0.05, respectively. Measurements of inner diameter (ID) and wall thickness (WT) were made via video microscopy (Living Systems Instrumentation).
(§2) Vascular Reactivity and Structural Characteristics in PA and MCA: For the first set of experiments, PA and MCA were equilibrated for 1 hour at 25 mmHg, after which myogenic activity was determined by stepwise increases in pressure from 40 to 100 mmHg for PA or 50 to 175 mmHg for MCA. ID and WT were measured at each pressure once stable. Changes in ID and WT were measured in PA only in response to small- (SKCa) and intermediate- (IKCa) conductance calcium-activated potassium channels blockers, apamin (3×10^−7 M) and TRAM-34 (10^−6 M), respectively. PA are unique in that the contribution of endothelium-derived hyperpolarizing factors (EDHF) to tone is greater than most vessels Cipolla et al. (2009) Stroke 40, 1451-1457. Thus, inhibition of SKCa/IKCa channels, a critical component in the EDHF pathway, causes constriction in PA Cipolla et al. (2009) Stroke 40, 1451-1457. We therefore assessed the effect of relaxin on constriction of PA in response to SKCa/IKCa channel inhibition in order to assess this unique pathway. […]

[3] = system: middle cerebral arteries (MCA); test: Pressurized arteriograph: vascular reactivity and structure of MCA from relaxin-treated NP Sprague Dawley rats; conditions: relaxin- vs vehicle-treated NP rats
Excerpt: as §1, with “Relaxin infusion was continuous for 10 days until animals were euthanized for vessel experiments and tissue collection. The minipumps used were capable of delivering relaxin for 14 days and thus tissue collection was within this duration.” left out
Vessel Preparation and Pressurized Arteriograph System: After collecting trunk blood, the brain was quickly removed and placed in cold physiological salt solution (PSS). […] Temperature and pH were continuously measured and maintained at 37.0±0.5° C. and 7.40±0.05, respectively. […]
as §2, with “PA are unique in that the contribution of endothelium-derived hyperpolarizing factors (EDHF) to tone is greater than most vessels Cipolla et al. (2009) Stroke 40, 1451-1457. Thus, inhibition of SKCa/IKCa channels, a critical component in the EDHF pathway, causes constriction in PA Cipolla et al. (2009) Stroke 40, 1451-1457.” left out

[4] = relaxin- vs vehicle-treated NP rats
[5] = relaxin- vs vehicle-treated NP rats, all pressures studied

relaxin
Blood pressure [1]: did not cause a lowering of blood pressure
Blood pressure ([1]; listed as Relaxin): did not affect
Kind of structural remodeling of PA [2]: hypertrophic outward remodeling
Kind of structural remodeling of PA ([2]; listed as Relaxin): outward hypertrophic remodeling
Distensibility of PA ([2]; normotensive rats): without affecting
CSA of PA wall [2, 4]: increased
OD of PA [2, 4]: increased
Passive WT of PA [2, 4]: increased
Response of PA to SKCa/IKCa inhibition (apamin, TRAM-34) [2, 4]: no difference
Tone of PA [2, 4]: did not significantly affect
Active diameter of PA [2, 5]: increase
Passive ID of PA [2, 5]: significantly increased
Structure of MCA [3]: no effect
Tone of MCA [3]: did not significantly affect
Active diameters of MCA ([3]; any pressure): no effect
